Among the test systems are COLO 205 colon; HCT-15 colon; HOP-62 NSCLC; HOP-92 NSCLC; KM12 colon; MALME-3M melanoma; MDA-MB-435; NCI/ADR-RES ovarian; SF-268 CNS; SK-MEL-5 melanoma; SNB-75 CNS; UACC-257 melanoma; UACC-62 melanoma; UO-31 renal; M14 melanoma.
What all share (test): NCI-60 cell line screen, 48 h

TGI data for nine compounds are collected here from PubChem BioAssay (NCI).

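48-hour exposure; five concentrations; linearly interpolated endpoints. Definition used: TGI = concentration required for complete inhibition of growth.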

Turning to `CN(C)c1ccc(NN=C2SC(=Nc3ccccc3)C(=Nc3ccccc3)S2)cc1`, the TGI in the assay with COLO 205 colon, in the assay with HCT-15 colon, in the assay with HOP-62 NSCLC, with HOP-92 NSCLC, in the assay on KM12 colon and in the assay on MALME-3M melanoma was above 100 µM throughout. Moreover, the TGI in the assay on MDA-MB-435, in the assay with NCI/ADR-RES ovarian, with SF-268 CNS, in the assay with SK-MEL-5 melanoma, with SNB-75 CNS and in the assay on UACC-257 melanoma was above 100 µM throughout. Further, the TGI in the assay on UACC-62 melanoma and in the assay on UO-31 renal was above 100 µM in each case.
In the case of `O=C1C(Cl)=C(Nc2ccc(S(=O)(=O)O)cc2)C(=O)c2ccccc21`, the TGI is 75.6 µM in the assay with COLO 205 colon; above 100 µM in the assay with HCT-15 colon; above 100 µM in the assay on HOP-62 NSCLC; 34.6 µM in the assay on HOP-92 NSCLC; 56.3 µM with KM12 colon; 47.1 µM in the assay with M14 melanoma. The TGI was 36.9 µM with MALME-3M melanoma; 39.6 µM with MDA-MB-435; above 100 µM in the assay on NCI/ADR-RES ovarian; above 100 µM with SF-268 CNS; 28 µM in the assay with SK-MEL-5 melanoma; above 100 µM in the assay on SNB-75 CNS. For the same compound, the results for the TGI in the assay on UACC-257 melanoma, with UACC-62 melanoma and in the assay with UO-31 renal were above 100 µM, above 100 µM and 29.2 µM, respectively.
As to `O=C(NNCC(O)COc1ccccc1)c1ccccc1` (configuration not stated), the TGI with COLO 205 colon, with HCT-15 colon, in the assay with HOP-62 NSCLC, with HOP-92 NSCLC, in the assay on KM12 colon and in the assay on M14 melanoma was above 100 µM throughout. Further, the TGI in the assay on MALME-3M melanoma, in the assay with MDA-MB-435, in the assay with NCI/ADR-RES ovarian, with SK-MEL-5 melanoma, in the assay on SNB-75 CNS and in the assay on UACC-257 melanoma was above 100 µM in each case. The TGI in the assay on UACC-62 melanoma and in the assay with UO-31 renal was above 100 µM in each case.
Turning to `CCOC(=O)C1=NOC2(C=C(Br)C(=O)C(Br)=C2)C1`, the TGI in the assay on COLO 205 colon came out at 2.7 µM; in the assay on HCT-15 colon, 4.91 µM; in the assay with HOP-62 NSCLC it was 16.2 µM; with HOP-92 NSCLC, 3.56 µM; in the assay with KM12 colon, 29.7 µM; in the assay with M14 melanoma, 3.29 µM. Besides, the TGI with MALME-3M melanoma is 1.25 µM; in the assay with MDA-MB-435 it was 3.49 µM; with NCI/ADR-RES ovarian, above 26.6 µM; with SF-268 CNS, 29.1 µM; in the assay on SK-MEL-5 melanoma, 21.7 µM; in the assay with SNB-75 CNS it was 33.4 µM. In addition, the values for the TGI with UACC-257 melanoma, in the assay with UACC-62 melanoma and in the assay on UO-31 renal were 2.71 µM, 8.54 µM and 2.51 µM, respectively.
In the case of `NCCSS(=O)(=O)CCN`, the TGI with COLO 205 colon, with HCT-15 colon, in the assay with HOP-62 NSCLC, in the assay on HOP-92 NSCLC, in the assay with KM12 colon and in the assay with M14 melanoma was above 100 µM each time. The TGI in the assay on MALME-3M melanoma, with MDA-MB-435, with NCI/ADR-RES ovarian, in the assay with SF-268 CNS, with SK-MEL-5 melanoma and with SNB-75 CNS was above 100 µM in each case. The TGI in the assay on UACC-62 melanoma and in the assay on UO-31 renal was above 100 µM each time.
On to `C=CCN1C(=O)/C(=C/c2cccs2)N=C1SC/C=C/C`, for which the TGI in the assay with COLO 205 colon was 88.9 µM; in the assay with HCT-15 colon, above 100 µM; in the assay on HOP-62 NSCLC, above 100 µM; in the assay on HOP-92 NSCLC, above 100 µM; in the assay with KM12 colon, above 100 µM; with M14 melanoma it was above 100 µM. Also, the TGI in the assay on MALME-3M melanoma is 96.6 µM; in the assay with MDA-MB-435, above 100 µM; with NCI/ADR-RES ovarian, above 100 µM; in the assay with SF-268 CNS, above 100 µM; in the assay with SK-MEL-5 melanoma, 37.7 µM; in the assay on SNB-75 CNS it was above 100 µM. Further, the TGI in the assay on UACC-257 melanoma, in the assay on UACC-62 melanoma and with UO-31 renal was above 100 µM each time.
Turning to `CC1=NNC(=O)C1C1CC(c2c[nH]c3ccccc23)=NNC1=O` (configuration not stated), the TGI with COLO 205 colon, in the assay on HCT-15 colon, in the assay with HOP-62 NSCLC, in the assay with HOP-92 NSCLC, in the assay on KM12 colon and with M14 melanoma was above 100 µM each time. Also, the TGI in the assay with MALME-3M melanoma, in the assay on MDA-MB-435, in the assay on NCI/ADR-RES ovarian, in the assay on SF-268 CNS, in the assay with SK-MEL-5 melanoma and in the assay with SNB-75 CNS was above 100 µM throughout. The TGI in the assay on UACC-257 melanoma, in the assay with UACC-62 melanoma and in the assay with UO-31 renal was above 100 µM throughout.
For `O=C1CCCN1C(=O)CS(=O)(=O)c1ccccc1`, the TGI in the assay on COLO 205 colon, in the assay with HCT-15 colon, in the assay with HOP-62 NSCLC, in the assay with HOP-92 NSCLC, in the assay with KM12 colon and in the assay on M14 melanoma was above 100 µM throughout. Besides, the TGI in the assay on MALME-3M melanoma, with MDA-MB-435, in the assay on NCI/ADR-RES ovarian, in the assay on SF-268 CNS, in the assay with SK-MEL-5 melanoma and in the assay on SNB-75 CNS was above 100 µM throughout. The TGI in the assay on UACC-257 melanoma, with UACC-62 melanoma and with UO-31 renal was above 100 µM throughout.
With `COc1cc2c3c(c1)CCCN3CCC2`, the TGI with COLO 205 colon, with HCT-15 colon, in the assay on HOP-62 NSCLC, in the assay on HOP-92 NSCLC, with KM12 colon and with M14 melanoma was above 10 µM each time. Also, the TGI with MALME-3M melanoma, in the assay with MDA-MB-435, in the assay with NCI/ADR-RES ovarian, with SF-268 CNS, in the assay on SK-MEL-5 melanoma and in the assay with SNB-75 CNS was above 10 µM each time. Further, the TGI in the assay on UACC-257 melanoma, in the assay on UACC-62 melanoma and with UO-31 renal was above 10 µM in each case.
